Laboratory results as given in patent US11331314B2, “Amine substituted triazole derivatives and uses thereof” (Bayer Pharma Aktiengesellschaft, priority 2017, dated 2022).

Assays:
human V1a receptor = human V1a receptor (Homo sapiens, UniProt P37288); experiment: Cellular in vitro assay for determining vasopressin receptor activity, V1a receptor cell line (photoprotein luminescence); type: cell-based; settings: for IC50: CHO cell line transfected with the human V1a receptor, agonist [Arg8]-vasopressin at EC50 concentration, read-out: IC50 hV1a; for ratio IC50 hV2/hV1a: selectivity ratio of the cellular IC50 values
Procedure, shortened: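 CHO K1 cells stably expressing human V1a receptor with aequorin photoprotein, loaded overnight with coelenterazine. Compounds preincubated 10 min at various concentrations, then challenged with [Arg^8]-vasopressin at EC50 concentration. Calcium-driven luminescence read immediately; IC50 values derived.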

human V2 receptor = molecular target: T1, human V2 receptor (Homo sapiens, UniProt P30518); experiment: Cellular in vitro assay for determining vasopressin receptor activity, V2 receptor cell line (CRE-luciferase); type: cell-based; settings: CHO cell line transfected with the human V2 receptor; agonist [Arg8]-vasopressin at EC50 concentration; read-out: IC50 hV2
T1 construct: expressed in transfected cells; host or cells: CHO K1 (ATCC) expressing firefly luciferase under a CRE-responsive promoter
T1 sequence (P30518 whole entry): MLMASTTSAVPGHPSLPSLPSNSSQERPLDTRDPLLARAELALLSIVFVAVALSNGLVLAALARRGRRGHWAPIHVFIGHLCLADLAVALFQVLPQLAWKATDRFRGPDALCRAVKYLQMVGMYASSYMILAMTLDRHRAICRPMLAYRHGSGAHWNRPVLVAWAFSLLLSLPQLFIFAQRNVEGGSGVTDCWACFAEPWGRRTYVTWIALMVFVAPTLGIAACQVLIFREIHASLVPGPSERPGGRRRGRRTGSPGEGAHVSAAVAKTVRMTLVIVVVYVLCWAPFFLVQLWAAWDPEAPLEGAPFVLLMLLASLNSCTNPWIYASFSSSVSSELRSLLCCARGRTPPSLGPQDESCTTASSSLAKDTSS

Chain of human V1a receptor (P37288 whole entry): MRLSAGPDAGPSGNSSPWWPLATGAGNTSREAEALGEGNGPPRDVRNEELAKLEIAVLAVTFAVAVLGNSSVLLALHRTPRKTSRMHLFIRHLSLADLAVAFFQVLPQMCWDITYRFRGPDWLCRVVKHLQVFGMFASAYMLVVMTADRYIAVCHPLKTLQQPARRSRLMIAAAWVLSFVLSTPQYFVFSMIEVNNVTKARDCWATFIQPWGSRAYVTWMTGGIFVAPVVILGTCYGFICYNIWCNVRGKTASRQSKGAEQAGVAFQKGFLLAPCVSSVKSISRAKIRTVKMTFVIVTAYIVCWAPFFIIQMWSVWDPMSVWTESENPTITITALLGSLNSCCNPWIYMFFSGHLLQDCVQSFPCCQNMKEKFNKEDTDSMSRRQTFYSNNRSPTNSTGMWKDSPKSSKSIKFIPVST

In the case of O=c1n(Cc2nc(N3CC4(COC4)C3)n(-c3ccccc3Cl)n2)nc(-c2ccc(Cl)cc2)n1C[C@H](O)C(F)(F)F [Example 86, 5-(4-Chlorophenyl)-2-{[1-(2-chlorophenyl)-5-(2-oxa-6-azaspiro[3.3]hept-6-yl)-1H-1,2,4-triazol-3-yl]methyl}-4-[(2S)-3,3,3-trifluoro-2-hydroxypropyl]-2,4-dihydro-3H-1,2,4-triazol-3-one], the IC50 (human V1a receptor) is reported as 0.98 nM, the “ratio IC50 hV2/hV1a” value (human V1a receptor) is reported as 6.8 and the IC50 (human V2 receptor) is reported as 6.66 nM.

In the case of O=c1n(Cc2nc(N3CCCC3)n(-c3ccccc3Cl)n2)nc(-c2ccc(Cl)cc2)n1C[C@H](O)C(F)(F)F [Example 87, 5-(4-Chlorophenyl)-2-{[1-(2-chlorophenyl)-5-(pyrrolidin-1-yl)-1H-1,2,4-triazol-3-yl]methyl}-4-[(2S)-3,3,3-trifluoro-2-hydroxypropyl]-2,4-dihydro-3H-1,2,4-triazol-3-one], the IC50 (human V1a receptor) is reported as 2.41 nM, the “ratio IC50 hV2/hV1a” value (human V1a receptor) is reported as 11.1 and the IC50 (human V2 receptor) is reported as 26.8 nM.

O=c1n(Cc2nc(N3CCCC3)n(-c3cccc(F)c3)n2)nc(-c2ccc(Cl)cc2)n1C[C@H](O)C(F)(F)F [Example 88, 5-(4-Chlorophenyl)-2-{[1-(3-fluorophenyl)-5-(pyrrolidin-1-yl)-1H-1,2,4-triazol-3-yl]methyl}-4-[(2S)-3,3,3-trifluoro-2-hydroxypropyl]-2,4-dihydro-3H-1,2,4-triazol-3-one] was tested, and the IC50 (human V1a receptor) was 5.59 nM, the “ratio IC50 hV2/hV1a” value (human V1a receptor) was 2.1 and the IC50 (human V2 receptor) was 11.9 nM.

For O=C1CN(c2nc(Cn3nc(-c4ccc(Cl)cc4)n(C[C@H](O)C(F)(F)F)c3=O)nn2-c2ccccc2F)CCN1 [Example 89, 4-[3-({3-(4-Chlorophenyl)-5-oxo-4-[(2S)-3,3,3-trifluoro-2-hydroxypropyl]-4,5-dihydro-1H-1,2,4-triazol-1-yl}methyl)-1-(2-fluorophenyl)-1H-1,2,4-triazol-5-yl]piperazin-2-one], the IC50 (human V1a receptor) was 5.45 nM, the “ratio IC50 hV2/hV1a” value (human V1a receptor) was 14.8 and the IC50 (human V2 receptor) was 80.5 nM.

In the case of O=c1n(Cc2nc(N3CCS(=O)(=O)CC3)n(-c3ccccc3F)n2)nc(-c2ccc(Cl)cc2)n1C[C@H](O)C(F)(F)F [Example 90, 5-(4-Chlorophenyl)-2-{[5-(1,1-dioxidothiomorpholin-4-yl)-1-(2-fluorophenyl)-1H-1,2,4-triazol-3-yl]methyl}-4-[(2S)-3,3,3-trifluoro-2-hydroxypropyl]-2,4-dihydro-3H-1,2,4-triazol-3-one], the IC50 (human V1a receptor) is reported as 8.8 nM, the “ratio IC50 hV2/hV1a” value (human V1a receptor) is reported as 28.1 and the IC50 (human V2 receptor) is reported as 248 nM.

In the case of CC(C)(N)CNc1nc(Cn2nc(-c3ccc(Cl)cc3)n(C[C@H](O)C(F)(F)F)c2=O)nn1-c1ccccc1F [Example 91, 2-({5-[(2-Amino-2-methylpropyl)amino]-1-(2-fluorophenyl)-1H-1,2,4-triazol-3-yl}methyl)-5-(4-chlorophenyl)-4-[(2S)-3,3,3-trifluoro-2-hydroxypropyl]-2,4-dihydro-3H-1,2,4-triazol-3-one], the IC50 (human V1a receptor) is reported as 1.15 nM, the “ratio IC50 hV2/hV1a” value (human V1a receptor) is reported as 91.7 and the IC50 (human V2 receptor) is reported as 105 nM.

In the case of CC(C)(N)CNc1nc(Cn2nc(-c3ccc(Cl)cc3)n(C[C@H](O)C(F)(F)F)c2=O)nn1-c1ncccc1F [Example 92, 2-({5-[(2-Amino-2-methylpropyl)amino]-1-(3-fluoropyridin-2-yl)-1H-1,2,4-triazol-3-yl}methyl)-5-(4-chlorophenyl)-4-[(2S)-3,3,3-trifluoro-2-hydroxypropyl]-2,4-dihydro-3H-1,2,4-triazol-3-one], the IC50 (human V1a receptor) is reported as 41.5 nM, the “ratio IC50 hV2/hV1a” value (human V1a receptor) is reported as 73.5 and the IC50 (human V2 receptor) is reported as 3050 nM.

For CC(C)(N)CNc1nc(Cn2nc(-c3ccc(Cl)cc3)n(C[C@H](O)C(F)(F)F)c2=O)nn1-c1ccccn1 [Example 93, 2-({5-[(2-Amino-2-methylpropyl)amino]-1-(pyridin-2-yl)-1H-1,2,4-triazol-3-yl}methyl)-5-(4-chlorophenyl)-4-[(2S)-3,3,3-trifluoro-2-hydroxypropyl]-2,4-dihydro-3H-1,2,4-triazol-3-one], the IC50 (human V1a receptor) was 28 nM, the “ratio IC50 hV2/hV1a” value (human V1a receptor) was 112.5 and the IC50 (human V2 receptor) was 3150 nM.

CC(C)(N)CNc1nc(Cn2nc(-c3ccc(Cl)cc3)n(C[C@H](O)C(F)(F)F)c2=O)nn1-c1ccccc1 [Example 94, 2-({5-[(2-Amino-2-methylpropyl)amino]-1-phenyl-1H-1,2,4-triazol-3-yl}methyl)-5-(4-chlorophenyl)-4-[(2S)-3,3,3-trifluoro-2-hydroxypropyl]-2,4-dihydro-3H-1,2,4-triazol-3-one] was tested, and the IC50 (human V1a receptor) was 4.3 nM, the “ratio IC50 hV2/hV1a” value (human V1a receptor) was 22.2 and the IC50 (human V2 receptor) was 95.5 nM.

With CC(C)(N)CNc1nc(Cn2nc(-c3ccc(Cl)cc3)n(C[C@H](O)C(F)(F)F)c2=O)nn1-c1ncccc1Cl [Example 95, 2-({5-[(2-Amino-2-methylpropyl)amino]-1-(3-chloropyridin-2-yl)-1H-1,2,4-triazol-3-yl}methyl)-5-(4-chlorophenyl)-4-[(2S)-3,3,3-trifluoro-2-hydroxypropyl]-2,4-dihydro-3H-1,2,4-triazol-3-one] the IC50 (human V1a receptor) was 0.86 nM, the “ratio IC50 hV2/hV1a” value (human V1a receptor) was 845.9 and the IC50 (human V2 receptor) was 727 nM.

O=c1n(Cc2nc(N3CCS(=O)(=O)CC3)n(-c3ncccc3Cl)n2)nc(-c2ccc(Cl)cc2)n1C[C@H](O)C(F)(F)F [Example 96, 5-(4-Chlorophenyl)-2-{[1-(3-chloropyridin-2-yl)-5-(1,1-dioxidothiomorpholin-4-yl)-1H-1,2,4-triazol-3-yl]methyl}-4-[(2S)-3,3,3-trifluoro-2-hydroxypropyl]-2,4-dihydro-3H-1,2,4-triazol-3-one] was tested, and the IC50 (human V1a receptor) was 1 nM, the “ratio IC50 hV2/hV1a” value (human V1a receptor) was 407.5 and the IC50 (human V2 receptor) was 408 nM.

With O=C1CN(c2nc(Cn3nc(-c4ccc(Cl)cc4)n(C[C@H](O)C(F)(F)F)c3=O)nn2-c2ncccc2Cl)CCN1 [Example 97, 4-[3-({3-(4-Chlorophenyl)-5-oxo-4-[(2S)-3,3,3-trifluoro-2-hydroxypropyl]-4,5-dihydro-1H-1,2,4-triazol-1-yl}methyl)-1-(3-chloropyridin-2-yl)-1H-1,2,4-triazol-5-yl]piperazin-2-one] the IC50 (human V1a receptor) was 0.56 nM, the “ratio IC50 hV2/hV1a” value (human V1a receptor) was 176.9 and the IC50 (human V2 receptor) was 99.5 nM.

CC(C)(O)CNc1nc(Cn2nc(-c3ccc(Cl)cc3)n(C[C@H](O)C(F)(F)F)c2=O)nn1-c1ncccc1Cl [Example 98, 5-(4-Chlorophenyl)-2-({1-(3-chloropyridin-2-yl)-5-[(2-hydroxy-2-methylpropyl)amino]-1H-1,2,4-triazol-3-yl}methyl)-4-[(2S)-3,3,3-trifluoro-2-hydroxypropyl]-2,4-dihydro-3H-1,2,4-triazol-3-one] was tested, and the IC50 (human V1a receptor) was 1.9 nM and the IC50 (human V2 receptor) was 145 nM.

O=c1n(Cc2nc(N3CCS(=O)(=O)CC3)n(CCC(F)(F)F)n2)nc(-c2ccc(Cl)cc2)n1C[C@H](O)C(F)(F)F [Example 100, 5-(4-Chlorophenyl)-2-{[5-(1,1-dioxidothiomorpholin-4-yl)-1-(3,3,3-trifluoropropyl)-1H-1,2,4-triazol-3-yl]methyl}-4-[(2S)-3,3,3-trifluoro-2-hydroxypropyl]-2,4-dihydro-3H-1,2,4-triazol-3-one] was tested, and the IC50 (human V1a receptor) was 330 nM, the “ratio IC50 hV2/hV1a” value (human V1a receptor) was 11.5 and the IC50 (human V2 receptor) was 3800 nM.

In the case of O=C1CC[C@H](CNc2nc(Cn3nc(-c4ccc(Cl)cc4)n(C[C@H](O)C(F)(F)F)c3=O)nn2CCC(F)(F)F)N1 [Example 101, 5-(4-Chlorophenyl)-2-{[5-({[(2R)-5-oxopyrrolidin-2-yl]methyl}amino)-1-(3,3,3-trifluoropropyl)-1H-1,2,4-triazol-3-yl]methyl}-4-[(2S)-3,3,3-trifluoro-2-hydroxypropyl]-2,4-dihydro-3H-1,2,4-triazol-3-one], the IC50 (human V1a receptor) is reported as 29.5 nM, the “ratio IC50 hV2/hV1a” value (human V1a receptor) is reported as 17.3 and the IC50 (human V2 receptor) is reported as 510 nM.

CC(C)(CNc1nc(Cn2nc(-c3ccc(Cl)cc3)n(C[C@H](O)C(F)(F)F)c2=O)nn1CCC(F)(F)F)NS(C)(=O)=O [Example 102, N-(1-{[3-({3-(4-Chlorophenyl)-5-oxo-4-[(2S)-3,3,3-trifluoro-2-hydroxypropyl]-4,5-dihydro-1H-1,2,4-triazol-1-yl}methyl)-1-(3,3,3-trifluoropropyl)-1H-1,2,4-triazol-5-yl]amino}-2-methylpropan-2-yl)methanesulfonamide] was tested, and the IC50 (human V1a receptor) was 3.9 nM, the “ratio IC50 hV2/hV1a” value (human V1a receptor) was 31.5 and the IC50 (human V2 receptor) was 123 nM.

With O=C1CC[C@@H](CNc2nc(Cn3nc(-c4ccc(Cl)cc4)n(C[C@H](O)C(F)(F)F)c3=O)nn2CCC(F)(F)F)N1 [Example 109, 5-(4-Chlorophenyl)-2-{[5-({[(2S)-5-oxopyrrolidin-2-yl]methyl}amino)-1-(3,3,3-trifluoropropyl)-1H-1,2,4-triazol-3-yl]methyl}-4-[(2S)-3,3,3-trifluoro-2-hydroxypropyl]-2,4-dihydro-3H-1,2,4-triazol-3-one] the IC50 (human V1a receptor) was 9.4 nM, the “ratio IC50 hV2/hV1a” value (human V1a receptor) was 41.0 and the IC50 (human V2 receptor) was 385 nM.

In the case of CC(C)(O)CNc1nc(Cn2nc(-c3ccc(Cl)cc3)n(C[C@H](O)C(F)(F)F)c2=O)nn1CCC(F)(F)F [Example 110, 5-(4-Chlorophenyl)-2-({5-[(2-hydroxy-2-methylpropyl)amino]-1-(3,3,3-trifluoropropyl)-1H-1,2,4-triazol-3-yl}methyl)-4-[(2S)-3,3,3-trifluoro-2-hydroxypropyl]-2,4-dihydro-3H-1,2,4-triazol-3-one], the IC50 (human V1a receptor) is reported as 1.4 nM, the “ratio IC50 hV2/hV1a” value (human V1a receptor) is reported as 121.4 and the IC50 (human V2 receptor) is reported as 170 nM.

CC(C)(N)CNc1nc(Cn2nc(-c3ccc(Cl)cc3)n(C[C@H](O)C(F)(F)F)c2=O)nn1CCC(F)(F)F [Example 111, 2-({5-[(2-Amino-2-methylpropyl)amino]-1-(3,3,3-trifluoropropyl)-1H-1,2,4-triazol-3-yl}methyl)-5-(4-chlorophenyl)-4-[(2S)-3,3,3-trifluoro-2-hydroxypropyl]-2,4-dihydro-3H-1,2,4-triazol-3-one] was tested, and the IC50 (human V1a receptor) was 18.5 nM, the “ratio IC50 hV2/hV1a” value (human V1a receptor) was 148.7 and the IC50 (human V2 receptor) was 2750 nM.
